Results reported in patent publication US20180185408A1, “ANTIFUNGAL NYLON-3 POLYMERS AND COMBINATION THERAPY USING THEM TO TREAT FUNGAL INFECTIONS” (priority 2016, published 2018).
In brackets after ≈: the same amount, converted by molar mass. Read-outs that look alike come from different tables or passages of the source.

Key:
Candida lusitaniae [1] = assay: MIC by broth microdilution (CLSI M27-A3); assay type: cell-based; conditions: CL3, […]10^5 cells/mL, 30°C, OD600 48 h
Candida albicans = assay: Minimum fungicidal concentration (MFC), plating after MIC assay; assay type: cell-based; conditions: […]10^5 cells/mL
Candida lusitaniae [2] = assay: as above; assay type: cell-based; conditions: C. Lusitania (CL3), Sensitive; RPMI 1640 (0.2% Glucose); […]10^5 cells/mL; 30° C.
Cryptococcus neoformans [3] = assay: MIC by broth microdilution (CLSI M27-A3); assay type: cell-based; conditions: […]10^3 cells/mL
Cryptococcus gattii [4] = assay: MIC by broth microdilution (CLSI M27-A3); assay type: cell-based; conditions: […]10^3 cells/mL
Cryptococcus neoformans [5] = assay: Minimum fungicidal concentration (MFC), plating after MIC assay; assay type: cell-based; conditions: RPMI 1640 (0.2% Glucose), […]10^3 cells/mL, 37° C.
Cryptococcus gattii [6] = assay: as above; assay type: cell-based; conditions: Sensitive, RPMI 1640 (0.2% Glucose), […]10^3 cells/mL, 37° C.
Candida spp. = assay: MIC and MFC by broth microdilution, summary over Candida strains; assay type: cell-based; conditions: Candida test strains, except resistant strain E4
Cryptococcus spp. = assay: MIC and MFC by broth microdilution, summary over Cryptococcus strains; assay type: cell-based
[7] = test system: human red blood cells (hRBCs); assay: Hemolysis assay; conditions: 1 hour

`C[C@@H]1[C@H](O)[C@@H](C)/C=C/C=C/C=C/C=C/C=C/C=C/C=C/[C@H](O[C@@H]2O[C@H](C)[C@@H](O)[C@H](N)[C@@H]2O)C[C@@H]2O[C@](O)(C[C@@H](O)C[C@@H](O)[C@H](O)CC[C@@H](O)C[C@@H](O)CC(=O)O[C@H]1C)C[C@H](O)[C@H]2C(=O)O` [AMB, amphotericin B] showed an MIC (Candida lusitaniae [1]; trial 1) of 0.4 µg/mL, an MIC (Candida lusitaniae [1]; trial 1, read-out: MIC) of 0.4 µM and an MIC (Candida lusitaniae [1]; trial 2) of 0.4 µg/mL. It also gave an MFC (Candida albicans; C. albicans (E4), Amp B Resistant, RPMI 1640 (0.2% Glucose), 30° C.) of 12.5 µg/mL, an MFC (Candida albicans; C. albicans (Gu5), Fluconazole Resistant, RPMI 1640 (0.2% Glucose), 30° C.) of 1.56 µg/mL and an MFC (Candida albicans; C. albicans (K1), Fluconazole Resistant, RPMI 1640 (0.2% Glucose), 30° C.) of 3.13 µg/mL. It also gave an MFC (Candida albicans; C. albicans (SCG5314), Sensitive, RPMI 1640 (0.2% Glucose), 30° C.) of 1.56 µg/mL, an MFC (Candida albicans; E4, 30°C, avg.) of 12.5 µg/mL and an MFC (Candida albicans; E4, 30°C, avg., read-out: MFC) of 13.5 µM. The MFC (Candida albicans; E4, 30°C, trial 1) was 12.5 µg/mL, the MFC (Candida albicans; E4, 30°C, trial 1, read-out: MFC) was 13.5 µM and the MFC (Candida albicans; E4, 30°C, trial 2) was 12.5 µg/mL. For the same compound, the MFC (Candida albicans; E4, 30°C, trial 2, read-out: MFC) was 13.5 µM, the MFC (Candida albicans; Gu5, 30°C, avg.) was 1.6 µg/mL and the MFC (Candida albicans; Gu5, 30°C, avg., read-out: MFC) was 1.7 µM. The MFC (Candida albicans; Gu5, 30°C, trial 1) was 1.6 µg/mL, the MFC (Candida albicans; Gu5, 30°C, trial 1, read-out: MFC) was 1.7 µM and the MFC (Candida albicans; Gu5, 30°C, trial 2) was 1.6 µg/mL. It also gave an MFC (Candida albicans; Gu5, 30°C, trial 2, read-out: MFC) of 1.7 µM, an MFC (Candida albicans; K1, 30°C, avg.) of 3.1 µg/mL and an MFC (Candida albicans; K1, 30°C, avg., read-out: MFC) of 3.4 µM. It also gave an MFC (Candida albicans; K1, 30°C, trial 1) of 3.1 µg/mL, an MFC (Candida albicans; K1, 30°C, trial 1, read-out: MFC) of 3.4 µM and an MFC (Candida albicans; K1, 30°C, trial 2) of 3.1 µg/mL. It also gave an MFC (Candida albicans; K1, 30°C, trial 2, read-out: MFC) of 3.4 µM, an MFC (Candida albicans; SC5314, 30°C, avg.) of 1.6 µg/mL and an MFC (Candida albicans; SC5314, 30°C, avg., read-out: MFC) of 1.7 µM. The MFC (Candida albicans; SC5314, 30°C, trial 1) was 1.6 µg/mL, the MFC (Candida albicans; SC5314, 30°C, trial 1, read-out: MFC) was 1.7 µM and the MFC (Candida albicans; SC5314, 30°C, trial 2) was 1.6 µg/mL. The MFC (Candida albicans; SC5314, 30°C, trial 2, read-out: MFC) was 1.7 µM, the MFC (Candida lusitaniae [2]) was 1.56 µg/mL (≈ 1.69 µM) and the MIC (Cryptococcus neoformans [3]; B3501, 30°C, […]) was 0.8 µg/mL. For the same compound, the MIC (Cryptococcus neoformans [3]; B3501, 30°C, […], Table 15) was 0.9 µM, the MIC (Cryptococcus neoformans [3]; C21F3, 30°C, OD600 48 h) was 0.8 µg/mL and the MIC (Cryptococcus neoformans [3]; C21F3, 30°C, OD600 48 h, Table 15) was 0.9 µM. The MIC (Cryptococcus neoformans [3]; C. neoformans (B3501), Sensitive, RPMI 1640 (0.2% Glucose), 37° C.) was 0.8 µg/mL, the MIC (Cryptococcus neoformans [3]; C. neoformans (B3501), 30°C) was 0.9 µM and the MIC (Cryptococcus neoformans [3]; C. neoformans (C21F3), 30°C) was 0.9 µM. It also gave an MIC (Cryptococcus neoformans [3]; C. neoformans (H99), Sensitive, RPMI 1640 (0.2% Glucose), 37° C.) of 1.6 µg/mL, an MIC (Cryptococcus neoformans [3]; C. neoformans (H99), 30°C) of 1.7 µM and an MIC (Cryptococcus neoformans [3]; C. neoformans (JEC21), Sensitive, RPMI 1640 (0.2% Glucose), 37° C.) of 0.2 µg/mL. It also gave an MIC (Cryptococcus neoformans [3]; C. neoformans (JEC21), 30°C) of 0.2 µM, an MIC (Cryptococcus neoformans [3]; H99, 30°C, OD600 48 h) of 1.6 µg/mL and an MIC (Cryptococcus neoformans [3]; H99, 30°C, OD600 48 h, Table 15) of 1.7 µM. The MIC (Cryptococcus neoformans [3]; JEC21, 30°C, OD600 48 h) was 0.2 µg/mL, the MIC (Cryptococcus neoformans [3]; JEC21, 30°C, OD600 48 h, Table 15) was 0.2 µM and the MIC (Cryptococcus neoformans [3]; […], RPMI 1640 (0.2% Glucose), 37° C.) was 0.8 µg/mL. For the same compound, the MIC (Cryptococcus gattii [4]; C751, 30°C, OD600 48 h) was no more than 0.2 µg/mL, the MIC (Cryptococcus gattii [4]; C751, 30°C, OD600 48 h, Table 15, read-out: MIC) was no more than 0.2 µM and the MIC (Cryptococcus gattii [4]; C. gattii (C751), Sensitive, RPMI 1640 (0.2% Glucose), 37° C.) was no more than 0.2 µg/mL. For the same compound, the MIC (Cryptococcus gattii [4]; C. gattii (C751), 30°C, read-out: MIC) was no more than 0.2 µM, the MIC (Cryptococcus gattii [4]; C. gattii (WM275), Sensitive, RPMI 1640 (0.2% Glucose), 37° C.) was 0.8 µg/mL and the MIC (Cryptococcus gattii [4]; C. gattii (WM276), 30°C, read-out: MIC) was 0.9 µM. For the same compound, the MIC (Cryptococcus gattii [4]; WM276, 30°C, OD600 48 h) was 0.8 µg/mL, the MIC (Cryptococcus gattii [4]; WM276, 30°C, OD600 48 h, Table 15, read-out: MIC) was 0.9 µM and the MFC (Cryptococcus neoformans [5]; C. neoformans (B3501), Sensitive) was 0.8 µg/mL (≈ 0.866 µM). It also gave an MFC (Cryptococcus neoformans [5]; C. neoformans (C21F3), Rapamycin Resistant) of 0.8 µg/mL (≈ 0.866 µM), an MFC (Cryptococcus neoformans [5]; C. neoformans (H99), Sensitive) of 1.6 µg/mL (≈ 1.73 µM) and an MFC (Cryptococcus neoformans [5]; C. neoformans (JEC21), Sensitive) of 0.4 µg/mL (≈ 0.433 µM). The MFC (Cryptococcus gattii [6]; C. gattii (C751)) was 0.8 µg/mL (≈ 0.866 µM), the MFC (Cryptococcus gattii [6]; C. gattii (WM275)) was 3.1 µg/mL (≈ 3.35 µM) and the “MIC and MFC values” (Candida spp.) was “sub-μM”. For the same compound, the MIC (Cryptococcus spp.; Cryptococcus test strains) was roughly 1 µM (≈ 0.924 µg/mL), the MFC (Cryptococcus spp.; Cryptococcus test strains (FLC: all strains except C21F3)) was roughly 1 µM (≈ 0.924 µg/mL) and the “concentration causing 10% hemolysis (HC10)” value [7] was 27 µM. For the same compound, the “concentration causing 50% lysis of hRBCs (HC50)” value [7] was 54 µM.
